# Like-named read-outs stand apart in the source and are kept apart here. Marks after values point to notes of the source that are not given here.
# Legend:
# [1] = system: human colon adenocarcinoma HT29 cells; conditions: cited from earlier work
# HEK 293T cells [2] = system: HEK 293T cells
# HEK293T [3] = type: cell-based, human
# [4] = system: HepG2, Caco-2, RAW 264.7, and HEK 293T cells
# cells = conditions: cited from earlier work
# HEK 293T cells [5] = type: cell-based, human
# Caco-2 = type: cell-based, human
# HepG2 = type: cell-based, human
# epithelial cell layers = conditions: cited from earlier work
# HEK293T [6] = type: cell-based, human; remark: listed apart in the source
# HEK293T cells = type: cell-based, human; conditions: read-out: IC50 halving the HEK293T cells viability
# RAW 264.7 = type: cell-based, mouse
# [7] = human (Caco-2), mouse (RAW 264.7)
compound,measurement,setting,value
"COc1cc(O)c2c(=O)oc3cc(O)cc(C)c3c2c1 [AME, alternariol-9-methyl ether]",metabolites found by non-target U-HPLC-MS analysis,Caco-2 cells,"3-O-glucuronide, 7-O-glucuronide, and 3-O-sulfate"
same,"transepithelial transport, Apical Medium",Caco-2 cells,35.92 ± 1.53^c %
same,"transepithelial transport, Basolateral Medium",Caco-2 cells,17.68 ± 0.86^bcd %
same,"transepithelial transport, Caco-2 Cells",Caco-2 cells,0.49 ± 0.02^ab %
same,"transepithelial transport, Raw 264.7 Cells",Caco-2 cells,0.01 ± 0.00^ab %
same,"transepithelial transport, Total",Caco-2 cells,53.94 ± 1.59^bc %
same,concentrations significantly increasing the rate of DNA breaks,[1],≥ 1000 nM
same,percentage of DNA in comet tail with respect to the negative control,HEK 293T cells [2],significantly increased
same,comet tails (percentage of DNA),"HEK 293T cells [2]; 25 µM, 24 h",~42%
same,"combination index, mixture of DAS (6.58 nM)",HEK293T [3],0.90 ± 0.05 Add
same,"combination index, mixture of HT-2 (21.22 nM)",HEK293T [3],0.92 ± 0.06 Add
same,"combination index, mixture of T-2 (3.87 nM)",HEK293T [3],0.97 ± 0.07 Add
same,"type of interaction, mixture of DAS (6.58 nM)",HEK293T [3],0.90 ± 0.05 Add (key: Syn: Combination index (CI) < 0.9; Add: 0.9 ≤ CI ≤ 1; Ant: CI > 1)
same,"type of interaction, mixture of HT-2 (21.22 nM)",HEK293T [3],0.92 ± 0.06 Add (key: Syn: Combination index (CI) < 0.9; Add: 0.9 ≤ CI ≤ 1; Ant: CI > 1)
same,"type of interaction, mixture of T-2 (3.87 nM)",HEK293T [3],0.97 ± 0.07 Add (key: Syn: Combination index (CI) < 0.9; Add: 0.9 ≤ CI ≤ 1; Ant: CI > 1)
same,IC50,[4],> 50 nM
same,concentration with statistically significant decrease in viability of cells,cells,25 µM
"CC(=O)OC[C@]12C[C@H](OC(=O)CC(C)C)C(C)=C[C@H]1O[C@@H]1[C@H](O)[C@@H](O)[C@@]2(C)[C@]12CO2 [HT-2, HT-2 toxin]","transepithelial transport, Apical Medium",Caco-2 cells; [7],72.63±2.25^f %
same,"transepithelial transport, Basolateral Medium",Caco-2 cells; [7],49.18 ± 1.80^g %
same,"transepithelial transport, Caco-2 Cells",Caco-2 cells; [7],0.01 ± 0.00^a %
same,"transepithelial transport, Raw 264.7 Cells",Caco-2 cells; [7],0.01 ± 0.00^a %
same,"transepithelial transport, Total",Caco-2 cells; [7],121.83 ± 1.33^f %
same,"combination index, silibinin 1.7 µM",HEK 293T cells [5],1.10 ± 0.02 Add
same,"combination index, silibinin 3.4 µM",HEK 293T cells [5],1.27 ± 0.11 Ant
same,"combination index, silibinin 6.8 µM",HEK 293T cells [5],1.57 ± 0.15 Ant
same,"combination index, silibinin 13.6 µM",HEK 293T cells [5],1.25 ± 0.08 Ant
same,"combination index, silibinin 27.3 µM",HEK 293T cells [5],1.06 ± 0.07 Add
same,"combination index, silibinin 54.5 µM",HEK 293T cells [5],1.03 ± 0.04 Add
same,"combination index, silibinin 109.00 µM",HEK 293T cells [5],1.08 ± 0.03 Add
same,"type of interaction, silibinin 1.7 µM",HEK 293T cells [5],1.10 ± 0.02 Add (key: Syn: Combination index (CI) < 0.9; Add: 0.9 ≤ CI ≤ 1; Ant: CI > 1)
same,"type of interaction, silibinin 3.4 µM",HEK 293T cells [5],1.27 ± 0.11 Ant (key: Syn: Combination index (CI) < 0.9; Add: 0.9 ≤ CI ≤ 1; Ant: CI > 1)
same,"type of interaction, silibinin 6.8 µM",HEK 293T cells [5],1.57 ± 0.15 Ant (key: Syn: Combination index (CI) < 0.9; Add: 0.9 ≤ CI ≤ 1; Ant: CI > 1)
same,"type of interaction, silibinin 13.6 µM",HEK 293T cells [5],1.25 ± 0.08 Ant (key: Syn: Combination index (CI) < 0.9; Add: 0.9 ≤ CI ≤ 1; Ant: CI > 1)
same,"type of interaction, silibinin 27.3 µM",HEK 293T cells [5],1.06 ± 0.07 Add (key: Syn: Combination index (CI) < 0.9; Add: 0.9 ≤ CI ≤ 1; Ant: CI > 1)
same,"type of interaction, silibinin 54.5 µM",HEK 293T cells [5],1.03 ± 0.04 Add (key: Syn: Combination index (CI) < 0.9; Add: 0.9 ≤ CI ≤ 1; Ant: CI > 1)
same,"type of interaction, silibinin 109.00 µM",HEK 293T cells [5],1.08 ± 0.03 Add (key: Syn: Combination index (CI) < 0.9; Add: 0.9 ≤ CI ≤ 1; Ant: CI > 1)
same,IC50,Caco-2,44.2 ± 2.26 nM
same,IC50,HepG2,47.4 ± 1.29 nM
same,"combination index, mixture of DAS (6.58 nM)",HEK293T [3],0.54 ± 0.03 Syn
same,"combination index, mixture of T-2 (3.87 nM)",HEK293T [3],0.67 ± 0.04 Syn
same,"type of interaction, mixture of DAS (6.58 nM)",HEK293T [3],0.54 ± 0.03 Syn (key: Syn: Combination index (CI) < 0.9; Add: 0.9 ≤ CI ≤ 1; Ant: CI > 1)
same,"type of interaction, mixture of T-2 (3.87 nM)",HEK293T [3],0.67 ± 0.04 Syn (key: Syn: Combination index (CI) < 0.9; Add: 0.9 ≤ CI ≤ 1; Ant: CI > 1)
same,transport through the epithelial cell layers,epithelial cell layers,≤ 32%
same,IC50,HEK293T [6],21.2 ± 1.6 nM
same,IC50,HEK293T cells,30 nM
same,IC50,[4]; read-out: IC50 range in studied cells,5.07 to 47.4 nM
same,IC50,RAW 264.7,5.07 ± 0.46 nM
"CC(C)C[C@@H]1NC(=O)[C@H](C)N(C)C(=O)CNC(=O)/C(=C/c2ccccc2)N(C)C1=O [TEN, tentoxin]",metabolites found by non-target U-HPLC-MS analysis,Caco-2 cells,"metabolite M1, metabolite M2, and metabolite M3"
same,"transepithelial transport, Apical Medium",Caco-2 cells,28.07 ± 0.62^abc %
same,"transepithelial transport, Basolateral Medium",Caco-2 cells,7.25 ± 0.72^ab %
same,"transepithelial transport, Caco-2 Cells",Caco-2 cells,0.00 ± 0.00^a %
same,"transepithelial transport, Raw 264.7 Cells",Caco-2 cells,0.00 ± 0.00^a %
same,"transepithelial transport, Total",Caco-2 cells,35.33 ± 0.10^ab %
same,percentage of DNA in comet tail with respect to the negative control,HEK 293T cells [2],no significant DNA damage
same,"combination index, mixture of DAS (6.58 nM)",HEK293T [3],0.92 ± 0.17 Add
same,"combination index, mixture of HT-2 (21.22 nM)",HEK293T [3],0.94 ± 0.04 Add
same,"combination index, mixture of T-2 (3.87 nM)",HEK293T [3],0.92 ± 0.07 Add
same,"type of interaction, mixture of DAS (6.58 nM)",HEK293T [3],0.92 ± 0.17 Add (key: Syn: Combination index (CI) < 0.9; Add: 0.9 ≤ CI ≤ 1; Ant: CI > 1)
same,"type of interaction, mixture of HT-2 (21.22 nM)",HEK293T [3],0.94 ± 0.04 Add (key: Syn: Combination index (CI) < 0.9; Add: 0.9 ≤ CI ≤ 1; Ant: CI > 1)
same,"type of interaction, mixture of T-2 (3.87 nM)",HEK293T [3],0.92 ± 0.07 Add (key: Syn: Combination index (CI) < 0.9; Add: 0.9 ≤ CI ≤ 1; Ant: CI > 1)
same,IC50,[4],> 50 nM

# Source: PMC7150870 (Toxins, 2020)
